Laboratory results taken from patent US11697646B2, “Triazole N-linked carbamoyl cyclohexyl acids as LPA antagonists” (BRISTOL-MYERS SQUIBB COMPANY, priority 2017, dated 2023).
Structures can show the parent of a compound that is named as a salt.

Target: T1, human LPA1 (Homo sapiens, UniProt Q92633)
T1 construct: expressed in transfected cells; host or cells: Chinese hamster ovary (CHO) cells
Assay: LPA1 functional antagonist assay (calcium flux)
Type: cell-based
Settings: CHO cells overexpressing human LPA1; calcium flux induced by 10 nM LPA; read-out: hLPA1 IC50
Method: The effectiveness of compounds of the present invention as LPA1 inhibitors can be determined in an LPA1 functional antagonist assay as follows:
The cells were then equilibrated to room temperature for 30 minutes before the assay. […] IC50 values were determined by fitting data to a 4-parameter logistic equation (GraphPad Prism, San Diego Calif.).

T1 sequence (Q92633 whole entry): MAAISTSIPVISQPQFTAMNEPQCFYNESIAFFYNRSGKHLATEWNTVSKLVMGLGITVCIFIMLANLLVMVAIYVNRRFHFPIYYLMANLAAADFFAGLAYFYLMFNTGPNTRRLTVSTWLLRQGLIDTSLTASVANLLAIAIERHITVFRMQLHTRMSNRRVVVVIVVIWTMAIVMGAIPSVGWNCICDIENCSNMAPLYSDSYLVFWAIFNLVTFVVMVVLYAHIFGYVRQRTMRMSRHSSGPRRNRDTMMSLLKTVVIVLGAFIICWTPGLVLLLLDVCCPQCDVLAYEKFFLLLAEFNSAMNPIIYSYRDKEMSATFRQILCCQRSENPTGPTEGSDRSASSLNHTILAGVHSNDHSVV

IC50 | Structure (SMILES)
71 nM | Cc1nc(-c2nnn(C)c2CNC(=O)OCCCC(C)(F)F)ccc1O[C@H]1CCC[C@H](C(=O)O)C1 [Example 206, (1S,3S)-3-((6-(5-(((((4,4-difluoropentyl)oxy)carbonyl)amino)methyl)-1-methyl-1H-1,2,3-triazol-4-yl)-2-methylpyridin-3-yl)oxy)cyclohexane-1-carboxylicacid]
112 nM | Cc1nc(-c2nnn(C)c2CNC(=O)OCC2CCC2)c(F)cc1O[C@H]1CCC[C@H](C(=O)O)C1 [Example 212, (1S,3S)-3-((6-(5-((((cyclobutylmethoxy)carbonyl)amino)methyl)-1-methyl-1H-1,2,3-triazol-4-yl)-5-fluoro-2-methylpyridin-3-yl)oxy)cyclohexane-1-carboxylic acid]
382 nM | Cc1nc(-c2nnn(C)c2CNC(=O)OCC(C)C)c(F)cc1O[C@H]1CCC[C@H](C(=O)O)C1 [Example 213]
129 nM | Cc1nc(-c2nnn(C)c2CNC(=O)OC2CC3(CC3)C2)c(F)cc1O[C@H]1CCC[C@H](C(=O)O)C1 [Example 214, (1S,3S)-3-((5-fluoro-2-methyl-6-(1-methyl-5-((((spiro[2.3]hexan-5-yloxy)carbonyl)amino)methyl)-1H-1,2,3-triazol-4-yl)pyridin-3-yl)oxy)cyclohexane-1-carboxylic acid]
112 nM | Cc1nc(-c2nnn(C)c2CNC(=O)OCC2(C)CC2)c(F)cc1O[C@H]1CCC[C@H](C(=O)O)C1 [Example 215, (1S,3S)-3-((5-fluoro-2-methyl-6-(1-methyl-5-(((((1-methylcyclopropyl)methoxy)carbonyl)amino)methyl)-1H-1,2,3-triazol-4-yl)pyridin-3-yl)oxy)cyclohexane-1-carboxylic acid]
46 nM | CCC1(COC(=O)NCc2c(-c3nc(C)c(O[C@H]4CCC[C@H](C(=O)O)C4)cc3F)nnn2C)CC1 [Example 216, (1S,3S)-3-((6-(5-(((((1-ethylcyclo-propyl)methoxy)carbonyl)amino)methyl)-1-methyl-1H-1,2,3-triazol-4-yl)-5-fluoro-2-methylpyridin-3-yl)oxy)cyclohexane-1-carboxylic acid]
72 nM | CCCCOC(=O)Nc1c(-c2nc(C)c(O[C@H]3CCC[C@H](C(=O)O)C3)cc2F)nnn1C [Example 217]
300 nM | Cc1nc(-c2nnn(C)c2NC(=O)OCC2CC2)c(F)cc1O[C@H]1CCC[C@H](C(=O)O)C1 [Example 218, (1S,3S)-3-{[6-(5-{[(cyclopropylmethoxy)carbonyl]amino}-1-methyl-1H-1,2,3-triazol-4-yl)-5-fluoro-2-methylpyridin-3-yl]oxy} cyclohexane-1-carboxylic acid]
389 nM | CC(C)OC(=O)Nc1c(-c2ccc(O[C@H]3CCC[C@H](C(=O)O)C3)cn2)nnn1C [Example 220, (1S,3S)-3-((6-(5-((isopropoxy-carbonyl)amino)-1-methyl-1H-1,2,3-triazol-4-yl)pyridin-3-yl)oxy)cyclohexane-1-carboxylic acid]

Structure (SMILES) | IC50
Cc1nc(-c2nnn(C)c2CNC(=O)OC[C@@H]2CC2(F)F)ccc1O[C@H]1CCC[C@H](C(=O)O)C1 [Example 208, (1S,3S)-3-((6-(5-((((((S)-2,2-difluorocyclopropyl)methoxy)carbonyl)amino)methyl)-1-methyl-1H-1,2,3-triazol-4-yl)-2-methylpyridin-3-yl)oxy)cyclohexane-1-carboxylate diethylammonium salt] | 57 nM
Cc1nc(-c2nnn(C)c2NC(=O)OCC(C)C)c(F)cc1O[C@H]1CCC[C@H](C(=O)O)C1 [Example 219, (1S,3S)-3-((5-fluoro-6-(5-((isobutoxycarbonyl)amino)-1-methyl-1H-1,2,3-triazol-4-yl)-2-methylpyridin-3-yl)oxy)cyclohexane-1-carboxylic acid] | 152 nM

Same assay, conditions: human LPA1 functional antagonist assay; read-out: hLPA1 IC50

IC50 | Structure (SMILES)
106 nM | Cc1nc(-c2nnn(C)c2CNC(=O)O[C@@H](C)C2CC2)ccc1O[C@H]1CCC[C@H](C(=O)O)C1 [Example 176, (1S,3S)-3-((6-(5-(((((S)-1-cyclo-propylethoxy)carbonyl)amino)methyl)-1-methyl-1H-1,2,3-triazol-4-yl)-2-methylpyridin-3-yl)oxy)cyclo-hexane-1-carboxylic acid]
46 nM | Cc1nc(-c2nnn(C)c2CNC(=O)OCC2CC2C)ccc1O[C@H]1CCC[C@H](C(=O)O)C1 (stereo partly drawn) [Example 179, (1S,3S)-3((2-methyl-6-(1-methyl-5-(((((2-methylcyclopropyl)methoxy)carbonyl)amino)methyl)-1H-1,2,3-triazol-4-yl)pyridin-3-yl)oxy)cyclohexane-1-carboxylic acid]
96 nM | Cc1nc(-c2nnn(C)c2CNC(=O)OCCC(F)(F)F)ccc1O[C@H]1CCC[C@H](C(=O)O)C1 [Example 181, (1S,3S)-3-((2-methyl-6-(1-methyl-5-((((3,3,3-trifluoropropoxy)carbonyl)amino)methyl)-1H-1,2,3-triazol-4-yl)pyridin-3-yl)oxy)cyclohexane-1-carboxylic acid]
85 nM | Cc1nc(-c2nnn(C)c2CNC(=O)OCC2CC(F)(F)C2)ccc1O[C@H]1CCC[C@H](C(=O)O)C1 [Example 182, (1S,3S)-3-((6-(5-(((((3,3-difluoro-cyclobutyl)methoxy)carbonyl)amino)methyl)-1-methyl-1H-1,2,3-triazol-4-yl)-2-methylpyridin-3-yl)oxy)cyclohexane-1-carboxylic acid]
41 nM | Cc1nc(-c2nnn(C)c2CNC(=O)OCC(C)C2CC2)ccc1O[C@H]1CCC[C@H](C(=O)O)C1 (stereo partly drawn) [Example 184, (1S,3S)-3-((6-(5-((((2-cyclopropylpropoxy)carbonyl)amino)methyl)-1-methyl-1H-1,2,3-triazol-4-yl)-2-methylpyridin-3-yl)oxy)cyclo-hexane-1-carboxylic acid]
72 nM | Cc1nc(-c2nnn(C)c2CNC(=O)OCCC2(C)CC2)ccc1O[C@H]1CCC[C@H](C(=O)O)C1 [Example 195, (1S,3S)-3((2-methyl-6-(1-methyl-5-((((2-(1-methylcyclopropyl)ethoxy)carbonyl)amino)methyl)-1H-1,2,3-triazol-4-yl)pyridin-3-yl)oxy)cyclohexane-1-carboxylic acid]
16 nM | Cc1nc(-c2nnn(C)c2CNC(=O)OCCC(C)C)ccc1O[C@H]1CCC[C@H](C(=O)O)C1 [Example 197, (1S,3S)-3-((6-(5-((((isopentyloxy)carbonyl)amino)methyl)-1-methyl-1H-1,2,3-triazol-4-yl)-2-methyl-pyridin-3-yl)oxy)cyclohexane-1-carboxylic acid]
45 nM | Cc1nc(-c2nnn(C)c2CNC(=O)OCC(F)(F)C(F)(F)F)ccc1O[C@H]1CCC[C@H](C(=O)O)C1 [Example 198]
312 nM | CC(=O)CCCOC(=O)NCc1c(-c2ccc(O[C@H]3CCC[C@H](C(=O)O)C3)c(C)n2)nnn1C [Example 199, (1S,3S)-3((2-methyl-6-(1-methyl-5-(((((4-oxopentyl)oxy)carbonyl)amino)methyl)-1H-1,2,3-triazol-4-yl)pyridin-3-yl)oxy)cyclohexane-1-carboxylic acid]
42 nM | Cc1nc(-c2nnn(C)c2CNC(=O)OC2CC3(CC3)C2)ccc1O[C@H]1CCC[C@H](C(=O)O)C1 [Example 201, (1S,3S)-3-((2-methyl-6-(1-methyl-5-((((spiro[2.3]hexan-5-yloxy)carbonyl)amino)methyl)-1H-1,2,3-triazol-4-yl)pyridin-3-yl)oxy)cyclohexane-1-carboxylic acid]
333 nM | Cc1nc(-c2nnn(C)c2CN(C)C(=O)OCC2CC2)ccc1O[C@H]1CCC[C@H](C(=O)O)C1 [Example 205, (1S,3S)-3-((6-(5-((((cyclopropylmethoxy)carbonyl)(methyl)amino)methyl)-1-methyl-1H-1,2,3-triazol-4-yl)-2-methyl-pyridin-3-yl)oxy)cyclohexane-1-carboxylic acid, TFA salt]

Structure (SMILES) | IC50
CC[C@H](C)OC(=O)NCc1c(-c2ccc(O[C@H]3CCC[C@H](C(=O)O)C3)c(C)n2)nnn1C [Example 175, (1S,3S)-3-((6-(5-((((S)-sec-butoxy-carbonyl)amino)methyl)-1-methyl-1H-1,2,3-triazol-4-yl)-2-methyl-pyridin-3-yl)oxy)cyclohexane-1-carboxylic acid] | 95 nM
Cc1nc(-c2nnn(C)c2CNC(=O)OC2CCC2)ccc1O[C@H]1CCC[C@H](C(=O)O)C1 [Example 177, (1S,3S)-3-((6-(5-(((cyclobutoxycarbonyl)amino)methyl)-1-methyl-1H-1,2,3-triazol-4-yl)-2-methyl-pyridin-3-yl)oxy)cyclohexane-1-carboxylic acid] | 148 nM
Cc1nc(-c2nnn(C)c2CNC(=O)OC2CC(F)(F)C2)ccc1O[C@H]1CCC[C@H](C(=O)O)C1 [Example 178, (1S,3S)-3-((6-(5-((((3,3-difluoro-cyclobutoxy)carbonyl)amino)methyl)-1-methyl-1H-1,2,3-triazol-4-yl)-2-methylpyridin-3-yl)oxy)cyclo-hexane-1-carboxylic acid] | 102 nM
Cc1nc(-c2nnn(C)c2CNC(=O)OCC(C)CC(F)F)ccc1O[C@H]1CCC[C@H](C(=O)O)C1 (stereo partly drawn) [Example 196, (1S,3S)-3-((6-(5-((((4,4-difluoro-2-methylbutoxy)carbonyl)amino)methyl)-1-methyl-1H-1,2,3-triazol-4-yl)-2-methylpyridin-3-yl)oxy)cyclo-hexane-1-carboxylic acid] | 83 nM
Cc1nc(-c2nnn(C)c2CNC(=O)OCCC(C)(F)F)ccc1O[C@H]1CCC[C@H](C(=O)O)C1 [Example 202, (1S,3S)-3-((6-(5-((((3,3-difluorobutoxy)carbonyl)amino)methyl)-1-methyl-1H-1,2,3-triazol-4-yl)-2-methylpyridin-3-yl)oxy) cyclo-hexane-1-carboxylic acid] | 86 nM
Cc1nc(-c2nnn(C)c2CN(C)C(=O)OCC(C)C)ccc1O[C@H]1CCC[C@H](C(=O)O)C1 [Example 203, (1S,3S)-3-((6-(5-(((isobutoxy-carbonyl)(methyl)amino)methyl)-1-methyl-1H-1,2,3-triazol-4-yl)-2-methylpyridin-3-yl)oxy)cyclo-hexane-1-carboxylic acid] | 91 nM
